Laboratory results taken from ChEMBL document CHEMBL1201862, “PubChem BioAssay data set” (2004).
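Five concentrations, 48 hours, 96-well plates. Here, GI50 denotes the concentration required for 50% inhibition of growth.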 Calls of active or inactive are those of the source. No stated cut-off is given here; in the data, active = GI50 up to about 1.1 µM and inactive = higher.

Columns and labels:
Test in all cases: DTP human tumour cell line panel, 48 h
LXFL 529 = test system: LXFL 529
UACC-62 = test system: UACC-62
NCI-H522 = test system: NCI-H522
UO-31 = test system: UO-31
SNB-75 = test system: SNB-75
SW-620 = test system: SW-620
SNB-78 = test system: SNB-78
COLO 205 = test system: COLO 205
SF-295 = test system: SF-295
KM-20L2 = test system: KM-20L2
A498 = test system: A498
UACC-257 = test system: UACC-257
DLD-1 = test system: DLD-1
RXF 393 = test system: RXF 393
786-0 = test system: 786-0
TK-10 = test system: TK-10
NCI-H460 = test system: NCI-H460
DMS-273 = test system: DMS-273
M19-MEL = test system: M19-MEL
M14 = test system: M14
LOX IMVI = test system: LOX IMVI
IGROV-1 = test system: IGROV-1
DMS-114 = test system: DMS-114
RXF 631 = test system: RXF 631
OVCAR-5 = test system: OVCAR-5
OVCAR-3 = test system: OVCAR-3
HOP-62 = test system: HOP-62
HCT-15 = test system: HCT-15
CCRF-CEM = test system: CCRF-CEM
HCT-116 = test system: HCT-116
SNB-19 = test system: SNB-19
EKVX = test system: EKVX
Malme-3M = test system: Malme-3M
OVCAR-4 = test system: OVCAR-4
SF-539 = test system: SF-539
SF-268 = test system: SF-268
MOLT-4 = test system: MOLT-4
SK-MEL-28 = test system: SK-MEL-28
U-251 = test system: U-251
HT-29 = test system: HT-29
SK-OV-3 = test system: SK-OV-3
A549 = test system: A549
XF498 = test system: XF498
SK-MEL-5 = test system: SK-MEL-5
OVCAR-8 = test system: OVCAR-8
KM12 = test system: KM12
ACHN = test system: ACHN
SN12C = test system: SN12C
NCI-H23 = test system: NCI-H23
K562 = test system: K562
HL-60 = test system: HL-60
SR = test system: SR
NCI-H226 = test system: NCI-H226
CAKI-1 = test system: CAKI-1
SK-MEL-2 = test system: SK-MEL-2
HCC 2998 = test system: HCC 2998
RPMI-8226 = test system: RPMI-8226
HOP-18 = test system: HOP-18
HOP-92 = test system: HOP-92

## CC1=C(C(=O)Nc2ccccc2)C(c2ccc(Cl)c(Cl)c2)C(C(=O)Nc2ccccc2)=C(C)N1
LXFL 529
  GI50: 12.9 µM (inactive)
UACC-62
  GI50: 10.2 µM (inactive)
NCI-H522
  GI50: 11.6 µM (inactive)
UO-31
  GI50: 13.2 µM (inactive)
SNB-75
  GI50: 14.2 µM (inactive)
SW-620
  GI50: 17 µM (inactive)
SNB-78
  GI50: 17.7 µM (inactive)
COLO 205
  GI50: 15.4 µM (inactive)
SF-295
  GI50: 12.5 µM (inactive)
KM-20L2
  GI50: 14.9 µM (inactive)
A498
  GI50: 16.7 µM (inactive)
UACC-257
  GI50: 12.7 µM (inactive)
DLD-1
  GI50: 12.1 µM (inactive)
RXF 393
  GI50: 8.61 µM (inactive)
786-0
  GI50: 12.8 µM (inactive)
TK-10
  GI50: 33.9 µM (inactive)
NCI-H460
  GI50: 13 µM (inactive)
DMS-273
  GI50: 13 µM (inactive)
M19-MEL
  GI50: 12.9 µM (inactive)
M14
  GI50: 11.5 µM (inactive)
LOX IMVI
  GI50: 14.2 µM (inactive)
IGROV-1
  GI50: 14.5 µM (inactive)
DMS-114
  GI50: 11.2 µM (inactive)
RXF 631
  GI50: 12.4 µM (inactive)
OVCAR-5
  GI50: 18.3 µM (inactive)
OVCAR-3
  GI50: 11.7 µM (inactive)
HOP-62
  GI50: 14.5 µM (inactive)
HCT-15
  GI50: 10.9 µM
CCRF-CEM
  GI50: 5.06 µM (inactive)
HCT-116
  GI50: 10.4 µM (inactive)
SNB-19
  GI50: 12.9 µM (inactive)
EKVX
  GI50: 16.6 µM (inactive)
Malme-3M
  GI50: 12.7 µM (inactive)
OVCAR-4
  GI50: 9.75 µM (inactive)
SF-539
  GI50: 17.3 µM (inactive)
SF-268
  GI50: 12 µM (inactive)
MOLT-4
  GI50: 0.512 µM (active)
SK-MEL-28
  GI50: 12.8 µM (inactive)
U-251
  GI50: 14.5 µM (inactive)
HT-29
  GI50: 12.2 µM (inactive)
SK-OV-3
  GI50: 15.1 µM (inactive)
A549
  GI50: 7.48 µM (inactive)
XF498
  GI50: 16.6 µM (inactive)
SK-MEL-5
  GI50: 14 µM (inactive)
OVCAR-8
  GI50: 13.7 µM (inactive)
KM12
  GI50: 13 µM (inactive)
ACHN
  GI50: 12.1 µM (inactive)
SN12C
  GI50: 14.9 µM (inactive)
NCI-H23
  GI50: 12.5 µM (inactive)

## COc1cc2ccnc(-c3n[nH]c4cc(OC)c(OC)cc34)c2cc1OC
LXFL 529
  GI50: > 100 µM (inactive)
UACC-62
  GI50: > 100 µM (inactive)
NCI-H522
  GI50: 22 µM (inactive)
UO-31
  GI50: > 100 µM (inactive)
SNB-75
  GI50: > 100 µM (inactive)
SW-620
  GI50: > 100 µM (inactive)
COLO 205
  GI50: > 100 µM (inactive)
SF-295
  GI50: > 100 µM (inactive)
K562
  GI50: > 100 µM (inactive)
KM-20L2
  GI50: > 100 µM (inactive)
HL-60
  GI50: > 100 µM (inactive)
SR
  GI50: > 100 µM (inactive)
A498
  GI50: > 100 µM (inactive)
UACC-257
  GI50: > 100 µM (inactive)
786-0
  GI50: > 100 µM (inactive)
TK-10
  GI50: > 100 µM (inactive)
NCI-H226
  GI50: > 100 µM (inactive)
NCI-H460
  GI50: > 100 µM (inactive)
DMS-273
  GI50: > 100 µM (inactive)
M19-MEL
  GI50: > 100 µM (inactive)
M14
  GI50: > 100 µM (inactive)
CAKI-1
  GI50: > 100 µM (inactive)
SK-MEL-2
  GI50: > 100 µM (inactive)
LOX IMVI
  GI50: > 100 µM (inactive)
IGROV-1
  GI50: > 100 µM (inactive)
DMS-114
  GI50: > 100 µM (inactive)
RXF 631
  GI50: 33 µM (inactive)
OVCAR-5
  GI50: > 100 µM (inactive)
OVCAR-3
  GI50: > 100 µM (inactive)
HOP-62
  GI50: > 100 µM (inactive)
HCT-15
  GI50: > 100 µM
HCC 2998
  GI50: > 100 µM (inactive)
CCRF-CEM
  GI50: > 100 µM (inactive)
HCT-116
  GI50: > 100 µM (inactive)
SNB-19
  GI50: > 100 µM (inactive)
EKVX
  GI50: > 100 µM (inactive)
Malme-3M
  GI50: > 100 µM (inactive)
OVCAR-4
  GI50: > 100 µM (inactive)
SF-539
  GI50: > 100 µM (inactive)
SF-268
  GI50: 62.4 µM (inactive)
MOLT-4
  GI50: > 100 µM (inactive)
SK-MEL-28
  GI50: > 100 µM (inactive)
U-251
  GI50: > 100 µM (inactive)
HT-29
  GI50: > 100 µM (inactive)
SK-OV-3
  GI50: > 100 µM (inactive)
A549
  GI50: > 100 µM (inactive)
XF498
  GI50: > 100 µM (inactive)
RPMI-8226
  GI50: > 100 µM (inactive)
SK-MEL-5
  GI50: > 100 µM (inactive)
OVCAR-8
  GI50: > 100 µM (inactive)
KM12
  GI50: > 100 µM (inactive)
ACHN
  GI50: > 100 µM (inactive)
HOP-18
  GI50: > 100 µM (inactive)
HOP-92
  GI50: > 100 µM (inactive)
SN12C
  GI50: > 100 µM (inactive)
NCI-H23
  GI50: > 100 µM (inactive)
